Experiments:
Type in all cases: cell-based, human
[1] = system: IκBα phosphorylation and degradation in patient MM cells; test: Immunoblot of IκBα phosphorylation and degradation triggered by TNFα in patient cells; settings: 10 μM for 90 min, TNFα 5 ng/mL, FIG. 1C
Protocol: Dex-sensitive (MM.1S) human MM cell line was kindly provided by Dr. Steven Rosen (Northwestern University, Chicago, Ill.). RPMI8226 and U266 human MM cells were obtained from American Type Culture Collection (Rockville, Md.). All MM cell lines cultured in RPMI-1640 containing 10% fetal bovine serum (FBS, Sigma Chemical Co., St. Louis, Mo.), […], 100 U/mL penicillin (Pen) and 100 μg/mL streptomycin (Strep) (GIBCO, Grand Island, N.Y.). Patient MM cells were purified from patient BM aspirates using RosetteSep separation system (StemCell Technologies, Vancouver, Canada). The purity of MM cells was confirmed by flow cytometry using PE-conjugated anti-CD138 antibody (Beckton Dickinson Co.).
(§1) MM cells were cultured with PS-341 or compound 1; harvested; washed; and lysed using lysis buffer: 50 mM Tris-HCl (pH 7.4), 150 mM NaCl, 1% NP-40, 5 mM EDTA, 5 mM NaF, 2 mM Na3VO4, 1 mM PMSF, 5 μg/mL leupeptin, and 5 μg/mL aprotinin. For detection of phospho-IκBα, IκBα, phospho-MAPK, phospho-STAT3, ERK2 or alpha-tubulin, cell lysates were subjected SDS-PAGE, transferred to PVDF membrane (Bio-Rad Laboratories, Hercules, Calif.), and immunoblotted with anti-phospho-IκBα, -IκBα, -phospho-MAPK, or -phospho-STAT3 Abs (Cell Signaling, Beverly, Mass.), and anti-alpha-tubulin (Sigma) Abs.
Inhibition of IκBα phosphorylation by compound 1 was assayed in MM.1S and patient MM cells triggered by TNFα. […]

[2] = system: U266 cells; test: Cell cycle profile by PI staining and flow cytometry, U266; settings: 10 μM for 24, 36 and 48 h, FIG. 4
Protocol: For cell cycle analysis, MM cells cultured for 24-48 h in compound 1 (10 μM), Dex (1 μM); IL-6 (20 ng/mL), or control media were harvested, washed with phosphate-buffered saline (PBS), fixed with 70% ethanol, and treated with 10 μg/mL of RNase (Roche Diagnostics Corp., Indianapolis, Ind.). Cells were then stained with propidium iodine (PI, Sigma) (5 μg/mL). For detection of ICAM-1 expression, MM cells cultured in TNFα (5 ng/mL) in the presence or absence of compound 1 (10 μM) were harvested, washed with PBS, and stained with mouse IgG isotype control or FITC-conjugated mouse anti-human CD54 Ab. Both cell cycle profile and ICAM-1 expression were determined using an Epics (Coulter Immunology, Hialeah, Fla.) flow cytometer, as in prior studies (Hideshima et al., Oncogene 20:4519 (2001)).

[3] = system: STAT3 phosphorylation; test: Immunoblot of IL-6 induced STAT3 phosphorylation in MM.1S cells; settings: IL-6 50 ng/mL for 5 min, compound 1 10 μM 90 min, FIG. 5
Protocol: as §1

[4] = system: MM.1S cells; test: DNA synthesis ([3H]-TdR uptake) in MM.1S cells with Dex, IL-6, Thal or IMiD3; settings: 48 h
Protocol: (§2) Proliferation was measured as previously described (Hideshima et al., Blood 96:2943 (2000)). MM cells (3×10^4 cells/well) were incubated in 96-well culture plates (Costar, Cambridge, Mass.) in the presence of media, PS-341, compound 1 and/or Dex or recombinant human IL-6 (Genetics Institute, Cambridge, Mass.) for 48 h at 37° C. DNA synthesis was measured by [^3H]-thymidine ([^3H]-TdR, NEN Products, Boston, Mass.) uptake. Cells were pulsed with [^3H]TdR (0.5 μCi/well) during the last 8 h of 48 h cultures. All experiments were performed in triplicate.

[5] = system: MM.1S cells; test: Growth inhibition / viability by MTT assay in MM.1S cells with TNFα
Protocol: The inhibitory effect of PS-341 and compound 1 on MM growth was assessed by measuring 3-(4,5-dimethylthiazol-2-yl)-2,5-diphenyl […] bromide (MTT) dye absorbance of the cells. Cells from 48 h cultures were pulsed with […] of 5 mg/mL MTT to each well for the last 4 h of 48 h cultures, followed by 100 μL isopropanol containing 0.04N HCl. Absorbance was measured at 570 nm using a spectrophotometer (Molecular Devices Corp., Sunnyvale Calif.).

[6] = system: MM.1S cells adherent to BMSCs; test: Paracrine MM.1S cell growth on BMSCs ([3H]-TdR uptake); settings: 0.4-10 μM, 48 h, dose dependent; FIG. 12B
Protocol: as §2
To evaluate growth stimulation and signaling in MM cells adherent to BMSCs, 3×10^4 MM.1S cells were cultured in BMSC coated 96-well plates for 48 h, in the presence or absence of compound 1. DNA synthesis was measured as described above. The Duoset ELISA (R&D System) was used to measure IL-6 in supernatants of 48 h cultures of BMSCs with or without MM.1S cells, in the presence or absence of compound 1.

With `O=C(Nc1cc(Cl)cc2c1[nH]c1cnccc12)c1cccnc1` [compound 1, N-(6-chloro-9H-β-carbolin-8-yl)-nicotinamide] the “phosphorylation and degradation of IκBα triggered by TNFα” value [1] was “inhibited”, the cell cycle profile [2] was “induced G1 growth arrest, but not apoptosis” and the STAT3 phosphorylation [3] was “does not inhibit”. The “inhibitory effect of IL-6 against IMiD3” value ([4]; compound 1 10 μM, IL-6 20 ng/mL, FIG. 9) was “neutralized”, the “protective effect of IL-6 on Dex-induced growth inhibition” value ([4]; compound 1 0.4-10 μM, Dex 0.1 μM, IL-6 50 ng/mL, FIG. 8C) was “abrogated” and the “constitutive and IL-6 induced DNA synthesis in MM.1S cells” value ([4]; compound 1 1.5-12.5 μM, IL-6 0.5-50 ng/mL, dose dependent, FIG. 8B) was “abrogated”. For the same molecule, the “effect of compound 1 on Dex inhibition of proliferation” value ([4]; compound 1 1.5-50 μM with Dex, FIG. 8A) was “did not enhance”, the inhibition at 10 µM ([5]; Homo sapiens, MM1.S, TNFα 1 ng/mL in the presence of 10 μM compound 1, 48 h) was 60% and the “viability of MM.1S cells (MTT assay)” value ([5]; TNFα 0.2 and 1 ng/mL in the presence of compound 1 2.5-10 μM, 48 h, p<0.001, FIG. 11) was “significantly decreased”. For the same molecule, the “increased MM.1S cell growth triggered by adherence to BMSCs” value [6] was “inhibits”.

Reference: US9248124B2, “Use of inhibitors of IκB kinase for the treatment of cancer” (Millennium Pharmaceuticals, Inc., priority 2001, dated 2016)
